In patent publication US20090105349A1, “ANDROGEN MODULATORS” (WARNER-LAMBERT COMPANY LLC, priority 2004, published 2009):

What was measured:
[1] = tested on: male Syrian hamsters (ear sebaceous glands, sebum); test: Animal model for inhibition of sebum production (hamster ear); type: in vivo, Syrian hamster; details: 3 % w/v, 4 weeks
Description: Arch. Derm. […] This model uses male Syrian hamsters, whose ears contain sebaceous glands.
Testing for sebum inhibition was carried out in the following manner. Male Syrian hamsters aged 9 to 10 weeks were introduced into the laboratory environment and acclimated for 2 weeks prior to use in the study. Each group consisted of 5 animals and run in parallel with vehicle and positive controls. Prior to administration, a sufficient quantity each compound was dissolved in 1 mL of the vehicle identified in Table III to achieve the final concentration reported in Table Ill.
Animals were dosed topically twice daily, five days a week, for 4 weeks. Each dose consisted of 25 micro liters of vehicle control or drug. The dose was applied to the ventral surfaces of both the right and left ears. All animals were sacrificed approximately 18-24 hours after the final dose. The right ears were collected from each animal and used for sebum analysis.
The ears were prepped for HPLC analysis in the following manner. One 8 mm distal biopsy punch was taken, just above the anatomical “V” mark in the ear to normalize the sample area. The punch was pulled apart. The ventral biopsy surface (the area where the topical dose was directly applied to the sebaceous glands) was retained for testing and the dorsal surface of the biopsy punch was discarded.
Tissue samples were blown with N2 gas and stored at −80° C. under nitrogen until HPLC analysis. In addition to ear samples, an aliquot of each drug and vehicle (at least 250 ul) was also stored at −80° C. for inclusion in the HPLC analysis.
HPLC analysis was carried out on an extract of the tissue sample. Tissue samples were contacted with 3 ml of solvent (a 4:1 admixture of 2,2,4-trimethylpentane and isopropyl alcohol). The mixture was shaken for 15 minutes and stored overnight at room temperature, protected from light. The next morning 1 milliliter of water was added to the sample and shaken for 15 minutes. The sample was then centrifuged at approximately 1500 rpm for 15 minutes. Two ml of the organic phase (top layer) was transferred to a glass vial, dried at 37° C., under nitrogen, for approximately 1 hour, and then lyophilized for approximately 48 hours. The samples were then removed from the lyophilizer and each vial was reconstituted with 600 μl of solvent A (trimethylpentane/tetrahydrofuran (99:1). The samples were then recapped and vortexed for 5 minutes.
200 μl of each sample was then transferred to a pre-labeled 200 μl HPLC vial with 200 μL glass inserts. The HPLC vials were placed in the autosampler tray for the Agilent 1100 series HPLC unit. The Agilent 1100 HPLC system consisted of a thermostated autosampler, a quarternary pump, a column heater, and an A/D interface module. All components were controlled by Agilent ChemStation software. A Waters Spherisorb S3W 4.6×100 mm analytical column was maintained at 30° C. by the Agilent column heater unit. The HPLC autosampler was programmed to maintain the sample temperature at 20 C throughout the run.
10 uL of each sample was injected in triplicate into the column. Two solvents were used for the solvent gradient. Solvent A was an admixture of trimethylpentane and tetrahydrofuran (99:1). Solvent B was ethylacetate. The gradient utilized is described in the table below: […]
The Sedex 75 Evaporative Light Scattering Detector (ELSD) was operated at 45° C. with a gain of 5, and N2 pressure maintained at 3.1 bar. Analog signal obtained by the instrument was sent to the Agilent A/D interface module where it was converted to a digital output. The conversion was based on a 10000 mAU/volt set point and the data rate was set at 10 Hz (0.03 min). The resulting digital output was then feed into the Agilent ChemStation software for integration of the peak area.

[2] = molecular target: T1, androgen receptor in MDA-MB453-MMTV clone 54-19 cells (Homo sapiens, UniProt P10275); test: AR antagonist cell assay (MMTV-luciferase reporter); type: cell-based; details: read-out: AR Cell IC50; MDA-MB453-MMTV clone 54-19, inhibition of DHT induced luciferase, 17 hr; mean of multiple tests
T1 sequence (P10275 1-920 Q868H): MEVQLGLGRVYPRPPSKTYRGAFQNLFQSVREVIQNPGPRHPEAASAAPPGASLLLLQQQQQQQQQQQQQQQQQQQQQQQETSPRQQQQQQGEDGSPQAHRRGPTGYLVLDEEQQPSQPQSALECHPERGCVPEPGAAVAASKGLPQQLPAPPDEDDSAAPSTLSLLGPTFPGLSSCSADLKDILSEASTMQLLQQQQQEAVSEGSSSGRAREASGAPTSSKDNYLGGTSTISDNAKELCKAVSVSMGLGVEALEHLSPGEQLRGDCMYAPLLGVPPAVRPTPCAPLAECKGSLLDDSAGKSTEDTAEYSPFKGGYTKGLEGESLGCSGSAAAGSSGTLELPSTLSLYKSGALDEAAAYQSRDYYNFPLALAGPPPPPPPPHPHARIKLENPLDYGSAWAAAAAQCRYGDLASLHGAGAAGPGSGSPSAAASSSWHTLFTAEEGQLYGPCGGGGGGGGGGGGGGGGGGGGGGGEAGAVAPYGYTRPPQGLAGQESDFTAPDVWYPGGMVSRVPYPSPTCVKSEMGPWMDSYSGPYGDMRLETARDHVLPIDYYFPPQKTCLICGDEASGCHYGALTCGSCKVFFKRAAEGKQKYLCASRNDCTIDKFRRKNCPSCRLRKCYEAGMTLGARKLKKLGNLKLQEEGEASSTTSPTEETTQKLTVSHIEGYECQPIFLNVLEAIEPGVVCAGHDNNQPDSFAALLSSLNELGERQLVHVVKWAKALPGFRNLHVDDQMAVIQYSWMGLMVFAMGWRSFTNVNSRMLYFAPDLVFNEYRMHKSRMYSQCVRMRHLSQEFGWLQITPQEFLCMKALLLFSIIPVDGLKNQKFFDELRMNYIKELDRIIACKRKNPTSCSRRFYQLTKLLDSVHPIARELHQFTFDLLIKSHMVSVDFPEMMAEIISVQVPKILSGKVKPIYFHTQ

[3] = Vehicle #1 (polyethylene glycol/transcutol/ethanol 20/20/60), topical twice daily, vs vehicle control

## CSc1ccccc1Oc1ccc(C#N)cc1Cl [Example 5, 3-Chloro-4-(2-methylsulfanyl-phenoxy)-benzonitrile]
[1]; [3]
  % CE Reduction: 27%
  % WE Reduction: 39%
[1]; Vehicle #1, topical twice daily, sum of WE and CE
  % WE & CE Reduction: 66%
[2]
  IC50: 48 nM
